Reference: ChEMBL document CHEMBL3886249, “Serine/threonine kinase inhibitors” (2015)

Biological target: Mitogen-activated protein kinase 1 (Homo sapiens, UniProt P28482)
Assay: Enzymatic Assay: Compounds were tested in an enzymatic assay using human ERK-2 (Mitogen Activated Kinase 1), recombinantly expressed as an n-terminal 6-His fusion protein in E. coli and corresponding to aa 8-360. […] Test compounds were diluted in DMSO in 3-fold serial dilutions at 100x final concentrations.

Mitogen-activated protein kinase 1, sequence (P28482 whole entry, the tested form may be a part): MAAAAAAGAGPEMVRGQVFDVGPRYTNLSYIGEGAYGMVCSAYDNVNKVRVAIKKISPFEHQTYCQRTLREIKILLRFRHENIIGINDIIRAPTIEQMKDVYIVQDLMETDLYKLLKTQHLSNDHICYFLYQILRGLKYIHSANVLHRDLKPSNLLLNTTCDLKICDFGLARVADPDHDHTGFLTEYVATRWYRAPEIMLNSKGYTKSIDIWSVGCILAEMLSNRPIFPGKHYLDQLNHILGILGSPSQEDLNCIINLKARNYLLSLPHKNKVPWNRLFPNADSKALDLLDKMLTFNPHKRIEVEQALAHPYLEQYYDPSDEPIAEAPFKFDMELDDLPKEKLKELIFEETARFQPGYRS

SMILES | IC50
CC(C)Nc1ncc2c(n1)CN(C(=O)N[C@@H](c1ccc(C(F)(F)F)c(F)c1)c1cccc(=O)[nH]1)CC2 | 144 nM
CC1CC(Nc2ncc3c(n2)CN(C(=O)N[C@H](CO)c2ccc(Cl)c(F)c2)CC3)CCO1 (some centres not stated) | 2.39 nM
